Source: ChEMBL document CHEMBL3885881, “DrugMatrix”

Species on record: Rattus norvegicus
Assay: DrugMatrix - Regimen: Daily Repeat
Format: toxicity, organism-based, Sprague-Dawley
Parameters: regimen Daily Repeat, gender Male, age 6-8 weeks
Settings: in vivo, po, route oral GAVAGE, vehicle 100 % WATER; for ABSOLUTE BASOPHIL / ABSOLUTE EOSINOPHIL / ABSOLUTE LYMPHOCYTE / ABSOLUTE MONOCYTE / ABSOLUTE SEGMENTED NEUTROPHIL / BASOPHIL / EOSINOPHIL / ERYTHROCYTE COUNT / HEMATOCRIT / HEMOGLOBIN / LEUKOCYTE COUNT / LYMPHOCYTE / MEAN CORPUSCULAR HEMOGLOBIN / MEAN CORPUSCULAR HEMOGLOBIN CONCENTRATION / MEAN CORPUSCULAR VOLUME / MONOCYTE / NEUTROPHIL / NUCLEATED RED BLOOD CELLS / PLATELET COUNT: tissue Blood; for ALANINE AMINOTRANSFERASE / ALBUMIN / ALKALINE PHOSPHATASE / ASPARTATE AMINOTRANSFERASE / BLOOD UREA NITROGEN / CARBON DIOXIDE / CHLORIDE / CHOLESTEROL / CREATINE PHOSPHOKINASE / CREATININE / GLUCOSE / LACTATE DEHYDROGENASE / LIPASE / PHOSPHORUS / POTASSIUM / SODIUM / TOTAL BILIRUBIN / TOTAL PROTEIN / URIC ACID: tissue Plasma
[1] = 100 mg/kg, 120 h, dose level Low, time 5 day
[2] = 2500 mg/kg, 72 h, dose level High, time 3 day
[3] = 2500 mg/kg, 120 h, dose level High, time 5 day

SMILES: NCC1(CC(=O)O)CCCCC1 [GABAPENTIN]
- ABSOLUTE BASOPHIL [1]: 0 CELLS/uL
- ABSOLUTE EOSINOPHIL [1]: 0 CELLS/uL
- ABSOLUTE LYMPHOCYTE [1]: 13861.67 CELLS/uL
- ABSOLUTE MONOCYTE [1]: 159 CELLS/uL
- ABSOLUTE SEGMENTED NEUTROPHIL [1]: 1246 CELLS/uL
- BASOPHIL [1]: 0%
- EOSINOPHIL [1]: 0%
- ERYTHROCYTE COUNT [1]: 5.64 x10E6/uL
- HEMATOCRIT [1]: 35.7%
- HEMOGLOBIN [1]: 14.27 G/DL
- LEUKOCYTE COUNT [1]: 15.27 x10E3/uL
- LYMPHOCYTE [1]: 91%
- MEAN CORPUSCULAR HEMOGLOBIN [1]: 25.33 pg
- MEAN CORPUSCULAR HEMOGLOBIN CONCENTRATION [1]: 39.97 G/DL
- MEAN CORPUSCULAR VOLUME [1]: 63.33 fL
- MONOCYTE [1]: 1%
- NEUTROPHIL [1]: 8%
- NUCLEATED RED BLOOD CELLS [1]: 0 /100WBC
- PLATELET COUNT [1]: 1093 x10E3/uL
- ALANINE AMINOTRANSFERASE [1]: 54.67 u/L
- ALBUMIN [1]: 4.37 G/DL
- ALKALINE PHOSPHATASE [1]: 380.67 u/L
- ASPARTATE AMINOTRANSFERASE [1]: 86 u/L
- BLOOD UREA NITROGEN [1]: 15.67 mg/dL
- CARBON DIOXIDE [1]: 31.33 mmol/L
- CHLORIDE [1]: 101.67 MEQ/L
- CHOLESTEROL [1]: 72.33 mg/dL
- CREATINE PHOSPHOKINASE [1]: 410.33 u/L
- CREATININE [1]: 0.16 mg/dL
- GLUCOSE [1]: 172.67 mg/dL
- LACTATE DEHYDROGENASE [1]: 185.67 u/L
- LIPASE [1]: 9.67 u/L
- PHOSPHORUS [1]: 11.93 mg/dL
- POTASSIUM [1]: 6 MEQ/L
- SODIUM [1]: 144.93 MEQ/L
- TOTAL BILIRUBIN [1]: 0.1 mg/dL
- TOTAL PROTEIN [1]: 6.07 G/DL
- URIC ACID [1]: 1.23 mg/dL
- ABSOLUTE BASOPHIL [2]: 0 CELLS/uL
- ABSOLUTE EOSINOPHIL [2]: 0 CELLS/uL
- ABSOLUTE LYMPHOCYTE [2]: 17008 CELLS/uL
- ABSOLUTE MONOCYTE [2]: 0 CELLS/uL
- ABSOLUTE SEGMENTED NEUTROPHIL [2]: 1925.33 CELLS/uL
- BASOPHIL [2]: 0%
- EOSINOPHIL [2]: 0%
- ERYTHROCYTE COUNT [2]: 5.55 x10E6/uL
- HEMATOCRIT [2]: 36.63%
- HEMOGLOBIN [2]: 14.27 G/DL
- LEUKOCYTE COUNT [2]: 18.93 x10E3/uL
- LYMPHOCYTE [2]: 90%
- MEAN CORPUSCULAR HEMOGLOBIN [2]: 25.7 pg
- MEAN CORPUSCULAR HEMOGLOBIN CONCENTRATION [2]: 38.93 G/DL
- MEAN CORPUSCULAR VOLUME [2]: 66.03 fL
- MONOCYTE [2]: 0%
- NEUTROPHIL [2]: 10%
- NUCLEATED RED BLOOD CELLS [2]: 0.33 /100WBC
- PLATELET COUNT [2]: 1357 x10E3/uL
- ALANINE AMINOTRANSFERASE [2]: 70.67 u/L
- ALBUMIN [2]: 4.47 G/DL
- ALKALINE PHOSPHATASE [2]: 324.33 u/L
- ASPARTATE AMINOTRANSFERASE [2]: 79.67 u/L
- BLOOD UREA NITROGEN [2]: 15 mg/dL
- CARBON DIOXIDE [2]: 30.67 mmol/L
- CHLORIDE [2]: 99.67 MEQ/L
- CHOLESTEROL [2]: 90 mg/dL
- CREATINE PHOSPHOKINASE [2]: 203.33 u/L
- CREATININE [2]: 0.15 mg/dL
- GLUCOSE [2]: 164.33 mg/dL
- LACTATE DEHYDROGENASE [2]: 162 u/L
- LIPASE [2]: 11.33 u/L
- PHOSPHORUS [2]: 13.37 mg/dL
- POTASSIUM [2]: 6.75 MEQ/L
- SODIUM [2]: 143.83 MEQ/L
- TOTAL BILIRUBIN [2]: 0.1 mg/dL
- TOTAL PROTEIN [2]: 6.13 G/DL
- URIC ACID [2]: 2.23 mg/dL
- ABSOLUTE BASOPHIL [3]: 0 CELLS/uL
- ABSOLUTE EOSINOPHIL [3]: 0 CELLS/uL
- ABSOLUTE LYMPHOCYTE [3]: 12458 CELLS/uL
- ABSOLUTE MONOCYTE [3]: 100 CELLS/uL
- ABSOLUTE SEGMENTED NEUTROPHIL [3]: 1842 CELLS/uL
- BASOPHIL [3]: 0%
- EOSINOPHIL [3]: 0%
- ERYTHROCYTE COUNT [3]: 5.12 x10E6/uL
- HEMATOCRIT [3]: 32.03%
- HEMOGLOBIN [3]: 13.13 G/DL
- LEUKOCYTE COUNT [3]: 14.4 x10E3/uL
- LYMPHOCYTE [3]: 86.33%
- MEAN CORPUSCULAR HEMOGLOBIN [3]: 25.67 pg
- MEAN CORPUSCULAR HEMOGLOBIN CONCENTRATION [3]: 41 G/DL
- MEAN CORPUSCULAR VOLUME [3]: 62.57 fL
- MONOCYTE [3]: 0.67%
- NEUTROPHIL [3]: 13%
- NUCLEATED RED BLOOD CELLS [3]: 0 /100WBC
- PLATELET COUNT [3]: 1217 x10E3/uL
- ALANINE AMINOTRANSFERASE [3]: 71.67 u/L
- ALBUMIN [3]: 4.3 G/DL
- ALKALINE PHOSPHATASE [3]: 373 u/L
- ASPARTATE AMINOTRANSFERASE [3]: 84.67 u/L
- BLOOD UREA NITROGEN [3]: 19.67 mg/dL
- CARBON DIOXIDE [3]: 28.67 mmol/L
- CHLORIDE [3]: 102.33 MEQ/L
- CHOLESTEROL [3]: 64 mg/dL
- CREATINE PHOSPHOKINASE [3]: 156 u/L
- CREATININE [3]: 0.17 mg/dL
- GLUCOSE [3]: 148.33 mg/dL
- LACTATE DEHYDROGENASE [3]: 96.67 u/L
- LIPASE [3]: 8 u/L
- PHOSPHORUS [3]: 11.7 mg/dL
- POTASSIUM [3]: 6.37 MEQ/L
- SODIUM [3]: 144.6 MEQ/L
- TOTAL BILIRUBIN [3]: 0.17 mg/dL
- TOTAL PROTEIN [3]: 6.03 G/DL
- URIC ACID [3]: 1.33 mg/dL
